Experimental data published in US9856262B2, “Analogues of 4H-pyrazolo[1,5-a] benzimidazole compound as PARP inhibitors” (HUBEI BIO-PHARMACEUTICAL INDUSTRIAL TECHNOLOGICAL INSTITUTE …, priority 2014, dated 2018).

Tests used:
[1] = biological target: T1, PARP-1 (Homo sapiens, UniProt P09874); experiment: PARP enzymatic assay (HT Universal Colorimetric PARP1 Assay Kit); format: biochemical; conditions: read-out: PARP-1 enzymatic inhibition IC50
T1 construct: purchased
In short: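 Inhibition of PARP1 was measured with the HT Universal Colorimetric PARP1 Assay Kit. A 96-well plate was coated with histone proteins overnight at 4° C, washed with PBST, and blocked for 30 min at room temperature. Test compound and 20 μl of PARP1 (1 nM) were then added and incubated. Streptavidin-HRP (1:50) and chemiluminescent HRP substrate were added, and the signal was read on an Envision microplate reader.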

[2] = test system: HCC1937 cells; experiment: Cellular PARylation assay; format: cell-based; conditions: Homo sapiens; HCC1937 cells, compound 30 min then 1 mM H2O2 10 min; read-out: cellular PARylation EC50
In short: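 HCC1937 cells pretreated 30 min with compound, then stimulated with 1 mM H2O2 for 10 min. Fixed cells immunostained with anti-PAR 10H and FITC secondary, with DAPI counterstain; fluorescence read on a plate reader.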

T1 sequence (P09874 whole entry): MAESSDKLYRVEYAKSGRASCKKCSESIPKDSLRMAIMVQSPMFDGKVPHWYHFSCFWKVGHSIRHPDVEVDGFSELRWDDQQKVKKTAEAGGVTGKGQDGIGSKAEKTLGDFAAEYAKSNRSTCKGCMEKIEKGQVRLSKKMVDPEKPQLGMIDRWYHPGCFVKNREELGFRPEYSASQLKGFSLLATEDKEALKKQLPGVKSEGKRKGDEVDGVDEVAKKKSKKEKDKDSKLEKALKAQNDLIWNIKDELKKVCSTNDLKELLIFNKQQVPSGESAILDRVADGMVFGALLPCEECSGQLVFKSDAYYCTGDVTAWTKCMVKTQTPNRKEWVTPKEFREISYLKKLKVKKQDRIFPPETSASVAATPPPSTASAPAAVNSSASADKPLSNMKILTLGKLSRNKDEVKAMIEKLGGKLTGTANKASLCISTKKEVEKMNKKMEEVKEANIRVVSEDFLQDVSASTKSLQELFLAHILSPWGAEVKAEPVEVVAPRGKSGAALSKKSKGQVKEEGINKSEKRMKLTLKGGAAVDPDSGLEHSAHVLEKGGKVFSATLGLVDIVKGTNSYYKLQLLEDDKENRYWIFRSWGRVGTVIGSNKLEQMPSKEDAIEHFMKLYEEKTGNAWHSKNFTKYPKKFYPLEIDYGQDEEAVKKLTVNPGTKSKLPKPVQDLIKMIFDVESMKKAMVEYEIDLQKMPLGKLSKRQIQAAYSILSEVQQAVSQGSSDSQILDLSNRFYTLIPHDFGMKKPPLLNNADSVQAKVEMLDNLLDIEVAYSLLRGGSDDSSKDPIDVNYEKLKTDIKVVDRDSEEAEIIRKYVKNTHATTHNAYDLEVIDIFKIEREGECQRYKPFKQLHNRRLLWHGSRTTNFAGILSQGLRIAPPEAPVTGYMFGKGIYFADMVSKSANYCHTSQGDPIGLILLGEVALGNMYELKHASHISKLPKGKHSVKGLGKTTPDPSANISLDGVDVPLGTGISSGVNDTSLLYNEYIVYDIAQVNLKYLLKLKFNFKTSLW

IC50 [1] | EC50 [2] | Compound
1 to 100 nM | 101 to 1000 nM | CC1(c2cnn3c2[nH]c2cc(F)cc(C(N)=O)c23)CCN(CC(F)(F)F)C1 (stereo not drawn) [Example 97, 6-fluoro-3-(3-methyl-1-(2,2,2-trifluoroethyl)pyrrolidin-3-yl)-4H-benzo[4,5]imidazo[1,2-b]pyrazole-8-carboxamide]
1 to 100 nM | 1 to 100 nM | CN1CCC(c2cnn3c2[nH]c2cc(F)cc(C(N)=O)c23)CC1 [Example 9, 6-fluoro-3-(1-methylpiperidin-4-yl)-4H-benzo[4,5]imidazo[1,2-b]pyrazole-8-carboxamide]
1 to 100 nM | 1 to 100 nM | CN(C)C1CCC(c2cnn3c2[nH]c2cc(F)cc(C(N)=O)c23)CC1 (stereo not drawn) [Example 48, 3-(4-(dimethylamino)cyclohexyl)-6-fluoro-4H-benzo[4,5]imidazo[1,2-b]pyrazole-8-carboxamide]
1 to 100 nM | 101 to 1000 nM | CCCN1CCCC1c1cnn2c1[nH]c1cc(F)cc(C(N)=O)c12 (stereo not drawn) [Example 24, 6-fluoro-3-(1-propylpyrrolidin-2-yl)-4H-benzo[4,5]imidazo[1,2-b]pyrazole-8-carboxamide]
1 to 100 nM | 1 to 100 nM | CCN1CCC(c2cnn3c2[nH]c2cc(F)cc(C(N)=O)c23)CC1 [Example 2, 3-(1-ethylpiperidin-4-yl)-6-fluoro-4H-benzo[4,5]imidazo[1,2-b]pyrazole-8-carboxamide]
1 to 100 nM | 1 to 100 nM | CC1(c2cnn3c2[nH]c2cc(F)cc(C(N)=O)c23)CCN(CCF)C1 (stereo not drawn) [Example 95, 6-fluoro-3-(1-(2-fluoroethyl)-3-methylpyrrolidin-3-yl)-4H-benzo[4,5]imidazo[1,2-b]pyrazole-8-carboxamide]
1 to 100 nM | 1 to 100 nM | NC(=O)c1cc(F)cc2[nH]c3c(C45CC4CN(C4CCC4)C5)cnn3c12 (stereo not drawn) [Example 30, 3-(3-cyclobutyl-3-azabicyclo[3.1.0]hexan-1-yl)-6-fluoro-4H-benzo[4,5]imidazo[1,2-b]pyrazole-8-carboxamide]
1 to 100 nM | 101 to 1000 nM | CNCc1ccc(-c2cnn3c2[nH]c2cc(F)cc(C(N)=O)c23)c(F)c1 [Example 42, 6-fluoro-3-(2-fluoro-4-((methylamino)methyl)phenyl)-4H-benzo[4,5]imidazo[1,2-b]pyrazole-8-carboxamide]
1 to 100 nM | 1 to 100 nM | NC(=O)c1cc(F)cc2[nH]c3c(C45CC4CN(CC4CC4)C5)cnn3c12 (stereo not drawn) [Example 31, 3-(3-(cyclopropylmethyl)-3-azabicyclo[3.1.0]hexan-1-yl)-6-fluoro-4H-benzo[4,5]imidazo[1,2-b]pyrazole-8-carboxamide]
1 to 100 nM | 101 to 1000 nM | CNCc1ccc(-c2cnn3c2[nH]c2cc(F)cc(C(N)=O)c23)cc1 [Example 43, 6-fluoro-3-(4-((methylamino)methyl)phenyl)-4H-benzo[4,5]imidazo[1,2-b]pyrazole-8-carboxamide]

Compound | IC50 [1] | EC50 [2]
CC1(c2cnn3c2[nH]c2cc(F)cc(C(N)=O)c23)CCN(Cc2cccs2)CC1 [Example 77, 6-fluoro-3-(4-methyl-1-(thiophen-2-ylmethyl)piperidin-4-yl)-4H-benzo[4,5]imidazo[1,2-b]pyrazole-8-carboxamide] | 1 to 100 nM | 1 to 100 nM
CC(C)N1CCC(C)(c2cnn3c2[nH]c2cc(F)cc(C(N)=O)c23)CC1 [Example 105, 6-fluoro-3-(1-isopropyl-4-methylpiperidin-4-yl)-4H-benzo[4,5]imidazo[1,2-b]pyrazole-8-carboxamide] | 1 to 100 nM | 1 to 100 nM
Cc1ncsc1CN1CCC(C)(c2cnn3c2[nH]c2cc(F)cc(C(N)=O)c23)CC1 [Example 83, 6-fluoro-3-(4-methyl-1-((4-methylthiazol-5-yl)methyl)piperidin-4-yl)-4H-benzo[4,5]imidazo[1,2-b]pyrazole-8-carboxamide] | 1 to 100 nM | 1 to 100 nM
Cc1nn2c([nH]c3cc(F)cc(C(N)=O)c32)c1C1(C)CCN(CC(C)C)CC1 [Example 113, 6-fluoro-3-(1-isobutyl-4-methylpiperidin-4-yl)-2-methyl-4H-benzo[4,5]imidazo[1,2-b]pyrazole-8-carboxamide] | 1 to 100 nM | 1 to 100 nM
CC1(CN2CCC(C)(c3cnn4c3[nH]c3cc(F)cc(C(N)=O)c34)CC2)COC1 [Example 71] | 1 to 100 nM | 1 to 100 nM
